Results from patent US20100022476A1, “PYRAZOLYLAMINO SUBSTITUTED QUINAZOLES FOR THE TREATMENT OF CANCER” (ASTRAZENECA AB, priority 2004, published 2010).

Columns and labels:
[1] = test system: SW620 human colon tumour cells; test: In vitro cell phenotype and substrate phosphorylation assay (phosphohistone H3); assay type: cell-based; conditions: SW-620, 24 hours of treatment, read-out: EC50 for inhibition of phosphohistone H3 levels
Procedure: (c) In Vitro Cell Phenotype and Substrate Phosphorylation Assay
This assay is used to determine the cellular effects of compounds on SW620 human colon tumour cells in vitro. Compounds typically cause inhibition of levels of phosphohistone H3 and an increase in the nuclear area of the cells.
10^4 SW620 cells per well were plated in 100 μl DMEM media (containing 10% FCS and 1% glutamine) (DMEM is Dulbecco's Modified Eagle's Medium (Sigma D6546)) in costar 96 well plates and left overnight at 37° C. and 5% CO2 to adhere. The cells were then dosed with compound diluted in media (50 μl is added to each well to give 0.00015μ-1 μM concentrations of compound) and after 24 hours of treatment with compound, the cells were fixed.
The cells were first examined using a light microscope and any cellular changes in morphology were noted. 100 μl of 3.7% formaldehyde was then added to each well, and the plate was left for at least 30 minutes at room temperature. Decanting and tapping the plate on a paper towel removed the fixative and plates were then washed once in PBS (Dulbecco's Phosphate Buffered Saline (Sigma D8537)) using an automated plate washer. […]
The next day, the antibody was tipped off and the plates were washed twice with PBS. […] 100 μl PBS was added to each well and the plates were sealed ready to analyse. […]

[2] = test system: drug-resistant MCF7-ADR human breast tumour cells; test: In vitro drug-resistant cell phenotype and substrate phosphorylation assay (phosphohistone H3); assay type: cell-based; conditions: NCI/ADR-RES, MCF7-ADR cells overexpressing drug-resistant proteins, read-out: EC50 for inhibition of phosphohistone H3 levels
Procedure: (d) In Vitro Drug-Resistant Cell Phenotype and Substrate Phosphorylation Assay.
This assay is used to determine the cellular effects of compounds on drug-resistant MCF7-ADR human breast tumour cells in vitro.
Compounds typically cause inhibition of levels of phosphohistoneH3 and an increase in the nuclear area of treated cells.
0.8×10^4 MCF7-ADR cells per well were plated in 100 μl DMEM media (containing 10% FCS (foetal calf serum) and 1% glutamine) in costar 96 well plates and left overnight at 37° C. and 5% CO2 to adhere.
All other procedures are identical to those for the above assay using SW620 cells.

[3] = Plasma protein binding assay (equilibrium dialysis); assay type: in vitro ADME; conditions: human plasma, 20 μM compound, dialysed 18 hours at 37° C.
Procedure: (e) Plasma Protein Binding Assay
Plasma protein binding was measured using the equilibrium dialysis technique. Compound was added to human plasma to a concentration of 20 μM and dialysed with isotonic phosphate/sodium chloride buffer for 18 hours at 37° C. The plasma and buffer solutions on each side of the dialysis membrane were analysed using a generic LCUVMS (Waters 2795 HPLC with Micromass ZQ mass spectrometer) and the percentage of free compound in 100% plasma was determined.

EC50 [1]: 7.6 nM | EC50 [2]: 400 nM | percentage of free compound in 100% plasma [3]: 3.9%
Compound: COc1cc(OCCN(C)CCO)c2c(Nc3cc(CC(=O)Nc4cccc(F)c4F)[nH]n3)ncnc2c1 [Compound 9, N-(2,3-difluorophenyl)-2-{3-[(5-{2-[(2-hydroxyethyl)(methyl)amino]ethoxy}-7-methoxyquinazolin-4-yl)amino]-1H-pyrazol-5-yl}acetamide]
